Here are results for four molecules from patent US12440471B2, “Compositions and methods for the treatment of bronchopulmonary dysplasia (BPD) and BPD-associated pulmonary hypertension” (AyuVis Research, Inc., priority 2021, dated 2025).

In data set [1] the test system is hyperoxia-exposed BPD mouse model. Put plainly: Hyperoxia-exposed BPD mouse model: dose response and lung morphometry. In kind it is in vivo. Conditions: mouse, in vivo. On the procedure:
Simultaneously, the AVR-48 nanosuspension formulation IN (0.11 mg/kg) was tested as well as in solution form, IP and IV (10 mg/kg) (through the facial vein), and confirmed that all routes of administration gave similar outcomes. […] From the PK study, as described above, the bioavailability of the drug in the plasma and lungs were similar when delivered as solution formulation via either IN or IP routes. As the goal of this study is to develop AVR-48 as a commercially viable and applicable therapeutic candidate for BPD, the IP route was selected as the preferred mode of drug delivery in neonatal murine pups, with the rationale that it would be easier to deliver the drug systemically to preterm babies IV, rather than the IN route. The results and outcome of all the routes of administration have been presented in a cumulative manner, as the endpoint was similar for all routes of administration. […] FIG. 1 is a dose response study of AVR-48 at different doses of […], given IP. ****p<0.0001. N=5-7 mice per group. 10 mg/kg (IP) was selected as the most efficacious dose. IP: intraperitoneal; Hyp: hyperoxia; BPD: Bronchopulmonary dysplasia.
Formulation of AVR-48 for efficacy and toxicokinetic studies. For the mouse dose response efficacy studies, AVR-48 was reconstituted in 0.9% sterile normal saline to give a final dose concentration of […] as a colorless solution, and injected IP (30 μl) on P2 and P4. The PLGA encapsulated AVR-48 or the GFP-tagged analog was resuspended in deionized sterile water to make a nanosuspension with final dose concentration of 0.025, 0.05 and 0.11 mg/kg/drop. The surfactant Curosurf® (Cheisi Parma, Italy), available commercially, was delivered IN at a volume of 3 μl per nostril, on P2 and P4. For the toxicokinetic study of AVR-48 in rat pups, a formulation of 10% DMSO, 20% tetraglycol, 20% PEG 400, and 50% sterile water was made fresh before administration (Shah, Das et al. 2021).
(§1) For the hyperoxia experiment, newborn pups were exposed to 100% hyperoxia (P0), along with their mothers, in cages in an airtight Plexiglas chamber (OxyCycler; Biospherix, Redfield, NY, USA) as described previously by the present inventors (Syed, Das et al., 2017, Leary, Das et al. 2019, Das, Acharya et al. 2020, relevant portions incorporated herein) for 4 consecutive days (till P4) and removed to RA on P5 to be recovered till P14, so as to emulate the human BPD condition. All pups were sacrificed on P14 for further experimental analyses. The pups without any hyperoxia exposure served as the corresponding RA (normoxia) controls.
Histology, immunohistochemistry and immunofluorescence. Both the RA control and BPD mice were anesthetized (using an overdose of a cocktail of xylazine-ketamine) and lung and heart tissues were harvested after perfusion and fixed overnight in 4% paraformaldehyde. Fixed tissues were then washed in fresh PBS, dehydrated using 70% ethanol, cleared, and embedded in paraffin to be sectioned and stained with hematoxylin and eosin (H&E) for lung morphometry or immunohistochemistry/immunofluorescence as previously described (Leary, Das et al. 2019, Das, Achaiya et al. 2020, Das, Curstedt et al. 2020). Immunofluorescence staining was done for Ki67 (Abcam, 1:10) and Von Wilebrand Factor (vWF-DAKO, 1:100) on lung paraffin sections following the protocol as described earlier (Leary, Das et al. 2019) while TUNEL staining was done following the manufacturer's instructions (Roche).
Morphometry and quantification. To study chord length, septal thickness and radial alveolar count in the lungs, RV, LV and IVS thickness, 5 μm-thick left-lobe lung and heart paraffin-embedded sections were stained with H&E. Multiple randomly chosen areas (at least 10 areas) from each section were photographed using 100× total magnification. […]

For data set [2], the target named is T1, TLR4 (Homo sapiens, UniProt O00206).
T1 construct: Cell lysates were prepared, total protein was quantified and treated with different concentrations; host or cells: THP-1 cells stimulated with PMA for 48 h, then lysed
Nature of the data set: TLR4 assay: unbound TLR4 ELISA in PMA-stimulated THP-1 cell lysates. In kind it is binding. Conditions: THP-1 human monocyte cells. The procedure:
FIG. 26A, TLR4 assay: 1×10^5 THP cells (ATCC) were seeded in 24 well plates and stimulated with phorbol myristyl actetate (PMA, 200 ng/mL) for 48 h. Cell lysates were prepared, total protein was quantified and treated with different concentrations (4, 16, 62.5 and 250 μM) of the AVR-48 for 2 h. ELISA was performed after to assess unbound TLR4 following manufacturer's instruction (Raybiotech). TLR4 IC50 of the AVR-48 was calculated using GraphPad Prism7.04.

Data set [3] in a line: Oral PK of nanomilled formulations in adult SD rats. The format is in vivo, rat. Conditions: rat, in vivo, po, 100 mg/kg. On the procedure:
The test item, the stabilizer (HPC-SSL) and the surfactant (SDS) were accurately weighed and transferred in a 15-mL amber glass jar charged with 6 mL of yttrium-stabilized zirconia beads (0.8 mm). The suspension was brought to final weight with water in order to achieve the desired final concentration. The formulation was mixed using a vortex for at least 1 minute and then homogenized using a roller mill (Unitized Jar Mill, Model 755 RMV from U.S. Stoneware (purchased from Fisher Scientific Canada cat #08-381-1) at 50 rpm for 48 hours.
For the animal study, the suspensions prepared at 50 mg/mL were diluted to 10 mg/mL using a blank vehicle prepared using the same proportions of excipients as those indicated in Table I. By diluting the concentrated suspension of AVR-84 a clear solution was obtained whereas for AVR-48 the solution was a homogeneous cloudy solution.
Animals and dosing: The male SD rats (N=3) were obtained from Charles River. Each animal was weighed before the administration of the test item. […] At the specified time points, t=15′, 30′, 1 h, 2 h, 3 h, 4 h, 6 h, 8 h and 24 h (N=3), blood (100 μL) was collected via the saphenous vein using MINIVETTE® POCT K3-EDTA. The blood samples were centrifuged for 10 min at 965 g and 4° C. within 30 min of collection, to obtain plasma. Plasma samples were kept frozen at −80° C. The plasma samples were thawed on ice and kept on ice during the sample preparation. Thirty μL of plasma samples were mixed with 75 μL of precipitation solution (80% acetonitrile and 20% methanol containing IS) was added. Samples were mixed and centrifuged at 3500 rpm for 10 min at 4° C. Forty μL of the supernatant was transferred to a 96 well plate, and 80 μL of water+0.1% formic acid was added and analyzed using the in house developed HPLC method.

The test system of data set [4] is hyperoxia-exposed BPD mouse model. Nature of the data set: BPD mouse model: bronchoalveolar lavage fluid (BALF) analysis. In kind it is in vivo. Conditions: 10 mg/kg; vs BPD group.
From the text: as §1
Bronchoalveolar lavage fluid (BALF) Analysis. Pups were sacrificed on PN14, and the trachea was cannulated with a small-caliber needle by instilling PBS endotracheally at […] pressure for 15 minutes. Two volumes of 300 μL of cold 1×PBS were instilled, gently aspirated, and pooled. Samples were centrifuged at 1000×g for 10 minutes at 4° C. The supernatant was collected, and total protein was quantified using the Pierce™ BCA Protein Assay Kit (Fisher Scientific Co, Houston, TX). The total cell count was done using the TC20 cell counter (BioRad, Hercules, CA). Similar method was followed for analyzing the protein concentration in BAL fluid collected from preterm lambs.

Data set [5] relates to human cord blood monocytes (CBMC). Put plainly: Cytokines in human cord blood monocytes (CBMC). In kind it is cell-based. The note with it: compound alone (10 μM) or with LPS, compared with only LPS. From the text: IL-12p40, is a marker for the innate immune response to infection and is down regulated in CBMC.

SMILES strings stand for the structures.

T1 sequence (O00206 24-839): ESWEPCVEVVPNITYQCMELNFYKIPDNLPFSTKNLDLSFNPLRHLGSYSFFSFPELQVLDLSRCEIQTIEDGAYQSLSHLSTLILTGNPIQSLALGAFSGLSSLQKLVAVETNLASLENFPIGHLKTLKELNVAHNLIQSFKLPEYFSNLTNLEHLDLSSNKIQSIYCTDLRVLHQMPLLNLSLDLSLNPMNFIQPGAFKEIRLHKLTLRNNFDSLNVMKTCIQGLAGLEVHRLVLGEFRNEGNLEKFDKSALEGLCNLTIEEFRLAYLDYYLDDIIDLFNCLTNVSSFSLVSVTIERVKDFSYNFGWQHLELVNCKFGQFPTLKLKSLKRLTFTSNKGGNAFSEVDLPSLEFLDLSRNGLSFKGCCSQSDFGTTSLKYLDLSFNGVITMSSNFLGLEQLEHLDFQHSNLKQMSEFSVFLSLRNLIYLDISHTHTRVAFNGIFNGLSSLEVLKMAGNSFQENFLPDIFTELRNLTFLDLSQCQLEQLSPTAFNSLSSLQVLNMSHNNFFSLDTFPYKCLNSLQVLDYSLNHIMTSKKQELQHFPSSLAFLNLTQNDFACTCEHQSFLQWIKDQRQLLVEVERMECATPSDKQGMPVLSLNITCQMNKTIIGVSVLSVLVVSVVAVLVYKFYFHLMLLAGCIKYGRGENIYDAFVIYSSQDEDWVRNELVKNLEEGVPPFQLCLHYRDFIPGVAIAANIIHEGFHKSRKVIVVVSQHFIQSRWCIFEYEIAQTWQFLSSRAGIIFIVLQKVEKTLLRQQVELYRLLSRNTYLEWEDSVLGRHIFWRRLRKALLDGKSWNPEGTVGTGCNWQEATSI

With `CC(=O)NC1[C@H](Oc2ccc(C(=O)N[C@@H]3OC(CO)[C@@H](O)[C@H](O)C3NC(C)=O)cc2)OC(CO)[C@@H](O)[C@@H]1O` (stereo partly shown) [Compound 3], the “inflammatory cytokines in neonatal mouse pups with BPD” value in data set [1] was “decrease inflammatory cytokines”. Besides, in data set [2], the “binding to TLR4” value is reported as “bind TLR4”.
Regarding `CC(=O)N[C@@H]1C(Oc2ccc3nonc3c2)OC(CO)C(O)C1O` (stereo partly shown) [AVR-84], in data set [3], the Cmax amounted to 4.56 µM, the Tmax is 0.5 ± 0.0 h, the “half-life (T v2)” value is 1.66 ± 1.0 h and the plasma concentration profile result is reported as “linear decline in drug concentration”.
`CC(=O)N[C@@H]1C(Oc2ccc(B3OC(C)(C)C(C)(C)O3)cc2)OC(CO)C(O)C1O` (stereo partly shown) [Compound 32]: in data set [1], the “inflammatory cytokines in neonatal mouse pups with BPD” value was “decrease inflammatory cytokines”. Further, in data set [2], the “binding to TLR4” value was “bind TLR4”.
For `CCOC(=O)C1=CCCC[C@H]1S(=O)(=O)Nc1ccc(F)cc1Cl` [TAK 242, reference compound], in data set [4], the “total inflammatory cells in BALF” value was “did not affect”. Further, in data set [5], the IL-12p40 response result was “decrease the LPS induced increase in IL-12p40 level”.

Broadly, the Cmax is the peak of the concentration-time curve. Usually Tmax stands for the time from dosing to the highest level.
